Key:
Assay type in all cases: cell-based
Jurkat cells [1] = test: Annexin V apoptosis assay (AF594-annexin V, DACM, SYTOX green) with the claimed apparatus; conditions: 1 μM nocodazole, 16 hours; for annexin V positive cells (apoptotic cells): viable cells, nonviable cells gated out by SYTOX green
Experimental: Here the claimed apparatus is used in assaying fluorescently labelled annexin V to stain apoptotic and necrotic cells and SYTOX green to distinguish between the early and late apoptotic/necrotic cells. In addition DACM is used to stain all viable cells. Jurkat cells were cultivated at 37° C. in a humidified air atmosphere with 5% CO2 in RPMI (Invitrogen, Cat. No. 61870) supplemented with 10% heat-inactivated fetal bovine serum (Invitrogen, Cat. No. 10108-165). Cells were either treated with 1 μM nocodazole (Sigma, Cat. No. M1404) or left untreated. After 16 hours incubation (37° C., 5% CO2) cells were harvested in cold phosphate-buffered saline (PBS) and stained with AlexaFluor 594-labelled annexin V (Molecular probes, A-13203) according to the manufacturer's protocol. After annexin V staining all viable cells were co-stained using DACM (N-(7-dimethylamino-4-methyl-3-coumarinyl)-maleimide, WAKO Pure Chemical Industries, CAS no. 55145-14-7) and nonviable cells were stained with SYTOX green (Invitrogen, S7020). The stained cells were loaded into a NC-Slide. The NC-Slide was placed in the claimed apparatus and the cells were counted and investigated using the claimed apparatus and in-house developed software. The cells were also investigated using an Olympus IX50 fluorescent microscope. SYTOX green fluorescence was detected using a U-MWIBA3 (blue bandpass) filter cube (Olympus), the annexin V AF594 conjugate was detected using a U-MWG2 (green longpass) filter cube (Olympus) and DACM was detected using the U-MNUA2 (UV band pass) filter cube (Olympus).

CHO cells = test: Caspase based assay (SR-VAD-FMK poly-caspase FLICA, DACM, SYTOX green); conditions: 1 μM nocodazole, 16 hours
Excerpt: Another caspase based apoptosis assay is the FLICAssay (Fluorochrome Inhibitor of Caspases Assay). This assay detects active caspases inside the cell using a caspase specific inhibitor sequence linked to a fluorescent probe. The non-cytotoxic caspase specific inhibitor is cell permeant and passes through the intact plasma membrane and covalently binds to the reactive cysteine residue on the large subunit of the active caspase heterodimer. […] Measuring the fluorescence thus gives a direct measure of the amount of active caspase in the whole living cell.
To quantify caspase activity by the FLICAssay, the cells to be investigated are incubated with the chosen caspase specific inhibitor sequence linked to a fluorescent probe. Cells are washed to remove unbound inhibitor and the fluorescence of the cells is determined using the claimed apparatus thereby making measurement of caspase activity on the single cell level possible. […]
CHO cells were cultivated in RPMI (Invitrogen, Cat. No. 61870) supplemented with 10% heat-inactivated fetal bovine serum (Invitrogen, Cat. No. 10108-165) at 37° C. in a humidified air atmosphere with 5% CO2. […] The NC-Slide was placed in the claimed apparatus and the cells were counted and investigated using the claimed apparatus and in-house developed software. […]

Jurkat cells [2] = test: Early apoptosis by mitochondrial membrane potential (JC-1 and DAPI staining); conditions: 10 μM campthotecin, 5 hours at 37° C.
Excerpt: Loss of the mitochondrial membrane potential is known to precede apoptosis and chemical-hypoxia-induced necrosis. The lipophilic cationic dye JC-1 (5,5,6,6-tetrachloro-1,1,3,3-tetraethylbenzimidazol-carbocyanine iodide) display potential-dependent accumulation in the mitochondria and provides a simple, fluorescent-based method for distinguishing between healthy and apoptotic cells. In healthy cells, the negative charge established by the intact mitochondrial membrane potential facilitates the accumulation of JC-1 in the mitochondrial matrix. At high concentrations JC-1 forms aggregates and become red fluorescent. In apoptotic cells the mitochondrial potential collapses and JC-1 localizes to the cytosol in its monomeric green fluorescent form. A cell impermeable DNA stain (like DAPI) can be included to stain necrotic and late apoptotic cells. Jurkat cells were grown in RPMI+10% FCS to a density of 5.0×10^5 cells/ml and treated with 10 μM campthotecin (apoptosis inducing drug) for 5 hours. Cells were stained with 2.5 μg/ml JC-1 for 10 minutes at 37° C., washed with PBS, resuspended in PBS+1 μg/ml DAPI and analysed using the claimed apparatus.

Jurkat (JM) cells = test: Annexin V apoptosis assay (AlexaFluor 488-Annexin V, PI) with the claimed apparatus; conditions: 3 μM Camptothecin, three hours incubation
Experimental: Here the claimed apparatus is used in assay fluorescently labeled Annexin V to stain apoptotic and necrotic cells and PI to distinguish between the early and late apoptotic/necrotic cells. Jurkat (JM) cells were cultivated at 37° C. in a humidified air atmosphere with 5% CO2 in RPMI (Invitrogen, Cat. No. 61870) supplemented with 10% heat-inactivated fetal bovine serum (Invitrogen, Cat. No. 10108-165). 3 μM Camptothecin (Sigma, Cat. No. C-9911) was added to the cells in order to induce apoptosis. After three hours incubation (37° C., 5% CO2) cells were harvested in cold phosphate-buffered saline (PBS) and stained with AlexaFluor 488-labelled Annexin V from the Vybrant® Apoptosis Assay Kit #2 (Molecular probes, V13241) according to the manufacturer's protocol. The stained cells were loaded into a cassette containing propidium iodide. The cassette was placed in the claimed apparatus and the cells were counted and investigated using the claimed apparatus and in-house developed software. The cells were also investigated using an Olympus IX50 fluorescent microscope. Images were captured using a Lumenera CCD camera and in-house developed software. AF488 fluorescence was detected using a U-MWIBA3 (blue bandpass) filter cube (Olympus) and PI fluorescence was detected using a U-MWG2 (green longpass) filter cube (Olympus).

| Compound | viability (Jurkat cells [1]) | annexin V positive cells (apoptotic cells) (Jurkat cells [1]) | annexin V positive cells (apoptotic cells) (Jurkat cells [1]; listed as Nocodazole) [%] | cells exhibiting strong red fluorescence (caspase activity, apoptotic cells) versus untreated cells (CHO cells) | depolarized/apoptotic cells (JC-1) (Jurkat cells [2]) [%] | viability (DAPI positive cells counted) (Jurkat cells [2]) | concentration of apoptotic cells (Annexin V conjugate binding cells) (Jurkat (JM) cells) | concentration of non-viable cells (PI) (Jurkat (JM) cells) |
| --- | --- | --- | --- | --- | --- | --- | --- | --- |
| COC(=O)Nc1nc2ccc(C(=O)c3cccs3)cc2[nH]1 [nocodazole] | almost not affected | more than 40% | ~40 | Substantially more |  |  |  |  |
| CC[C@@]1(O)C(=O)OCc2c1cc1n(c2=O)Cc2cc3ccccc3nc2-1 [Camptothecin] |  |  |  |  | 60 | approximately 96% | 2.6×10^5 | 4.5×10^4 |

— patent US10254223B2, “Apparatus and methods for analysing fluorescent particles” (ChemoMetec A/S, priority 2008, dated 2019)
